Reference: US11603355B2, “Charged ion channel blockers and methods for use” (Nocion Therapeutics, Inc., priority 2019, dated 2023)
Structures can show the parent of a compound that is named as a salt.

How the values were obtained:
[1] = PAMPA membrane permeability assay; format: in vitro ADME; conditions: permeability coefficient, pH 7.4 buffer, GIT lipid, 4 hours incubation
Procedure, shortened: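 Passive diffusion across a GIT-lipid-painted artificial membrane at pH 7.4, with a 50 uM donor stock diluted from DMSO and a 4 h incubation. UV spectra of the donor, acceptor and reference plates were read, and the permeability coefficient was calculated from the AUCs, in 10^−6 cm/s.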

[2] = target: T1, NaV1.7 (Homo sapiens, UniProt Q15858); assay: Automated patch clamp (Qube 384), external block of NaV1.7; format: cell-based; conditions: IC50, compound in external solution, HEK293 cells, read-out: Nav1.7 Extracellular Inhibition
T1 construct: expressed in transfected cells; host or cells: HEK293 (tetracycline-inducible)
T1 sequence (Q15858 whole entry): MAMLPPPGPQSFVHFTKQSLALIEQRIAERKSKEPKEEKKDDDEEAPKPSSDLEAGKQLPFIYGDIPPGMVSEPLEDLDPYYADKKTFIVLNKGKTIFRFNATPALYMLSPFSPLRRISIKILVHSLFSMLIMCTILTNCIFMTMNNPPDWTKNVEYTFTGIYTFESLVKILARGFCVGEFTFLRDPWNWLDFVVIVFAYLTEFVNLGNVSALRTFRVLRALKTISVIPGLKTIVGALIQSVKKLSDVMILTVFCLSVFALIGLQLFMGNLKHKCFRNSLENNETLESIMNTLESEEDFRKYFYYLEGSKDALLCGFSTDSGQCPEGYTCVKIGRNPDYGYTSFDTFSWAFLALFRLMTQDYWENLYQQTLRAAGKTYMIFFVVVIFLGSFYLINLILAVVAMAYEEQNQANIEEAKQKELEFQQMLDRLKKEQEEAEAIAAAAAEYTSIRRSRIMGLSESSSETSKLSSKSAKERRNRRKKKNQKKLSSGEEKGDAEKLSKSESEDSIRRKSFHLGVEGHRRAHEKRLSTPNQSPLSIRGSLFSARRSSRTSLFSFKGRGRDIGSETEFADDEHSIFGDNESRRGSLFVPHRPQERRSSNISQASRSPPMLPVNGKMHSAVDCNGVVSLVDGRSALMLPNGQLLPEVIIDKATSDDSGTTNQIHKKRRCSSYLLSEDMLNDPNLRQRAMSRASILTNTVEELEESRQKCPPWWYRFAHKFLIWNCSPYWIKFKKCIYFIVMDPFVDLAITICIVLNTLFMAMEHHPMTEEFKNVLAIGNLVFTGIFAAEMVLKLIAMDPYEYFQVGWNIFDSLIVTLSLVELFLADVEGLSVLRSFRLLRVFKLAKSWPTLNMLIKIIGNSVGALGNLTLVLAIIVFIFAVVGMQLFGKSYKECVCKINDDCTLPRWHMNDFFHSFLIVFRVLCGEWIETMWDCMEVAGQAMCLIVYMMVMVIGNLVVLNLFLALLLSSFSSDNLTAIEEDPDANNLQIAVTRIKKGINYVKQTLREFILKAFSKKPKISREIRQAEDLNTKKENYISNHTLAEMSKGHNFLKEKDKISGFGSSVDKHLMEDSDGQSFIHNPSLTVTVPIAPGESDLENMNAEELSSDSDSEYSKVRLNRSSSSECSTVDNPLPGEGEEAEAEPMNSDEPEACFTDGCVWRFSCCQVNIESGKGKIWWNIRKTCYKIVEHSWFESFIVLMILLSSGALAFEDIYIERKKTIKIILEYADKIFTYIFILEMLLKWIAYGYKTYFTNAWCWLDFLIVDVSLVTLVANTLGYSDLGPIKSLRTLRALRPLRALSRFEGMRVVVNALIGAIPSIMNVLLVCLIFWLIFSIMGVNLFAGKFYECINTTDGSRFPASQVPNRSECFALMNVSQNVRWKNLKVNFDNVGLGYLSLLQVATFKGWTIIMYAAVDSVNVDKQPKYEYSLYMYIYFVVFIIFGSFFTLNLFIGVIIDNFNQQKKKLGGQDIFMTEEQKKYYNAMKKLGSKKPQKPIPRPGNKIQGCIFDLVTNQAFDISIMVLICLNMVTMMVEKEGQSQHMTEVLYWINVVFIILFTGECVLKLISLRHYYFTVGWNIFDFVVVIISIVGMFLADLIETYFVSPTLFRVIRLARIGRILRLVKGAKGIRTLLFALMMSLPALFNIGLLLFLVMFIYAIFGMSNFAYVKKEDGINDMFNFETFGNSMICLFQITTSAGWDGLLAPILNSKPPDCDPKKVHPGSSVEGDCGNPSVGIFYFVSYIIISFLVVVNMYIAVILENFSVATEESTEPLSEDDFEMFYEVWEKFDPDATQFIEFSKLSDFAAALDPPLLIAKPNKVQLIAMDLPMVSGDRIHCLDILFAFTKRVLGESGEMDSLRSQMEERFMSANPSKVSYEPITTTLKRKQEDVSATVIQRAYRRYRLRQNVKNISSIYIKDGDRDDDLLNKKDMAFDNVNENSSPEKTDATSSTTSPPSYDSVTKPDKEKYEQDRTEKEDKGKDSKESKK
Experimental: NaV1.7 was expressed in HEK293 cells upon induction with tetracycline. Cells were cultured in DMEM containing 10% dialyzed Fetal Bovine Serum (VWR, Radnor, Pa.), 1% Glutamax (VWR, Radnor, Pa.), 1% Penicillin-Streptomycin (VWR, Radnor, Pa.), 100 mg/L Hygromycin (Thermo Fisher Scientific, Waltham, Mass. and 5 mg/L Blasticidin (Alfa Aesar, Haverhill, Mass.). Cells were grown and maintained at 37° C. in a humidified environment containing 10% CO2 in air. Cells were detached from the culture flask for passage and harvested using 0.05% Trypsin-EDTA (Thermo Fisher Scientific, Waltham, Mass.). To induce NaV1.7, cells were induced with tetracycline (0.1-1 μg/mL, IBI Scientific, Peosta, Iowa) the day before recording.
Before experiments, cells were washed with DPBS (VWR, Radnor, Pa.), digested with Detachin (VWR Radnor, Pa.) and then triturated 10 times in CHO Serum-Free Media (VWR Radnor, Pa.) to resuspend the cells and to break apart cell aggregates. Cells were counted and the final concentration was set at 2-5 million cells per mL.
The intracellular solution contained the following: 140 mM CsF, 1 mM/5 mM EGTA/CsOH, 10 mM HEPES, 10 mM NaCl, adjusted to pH 7.3 with CsOH, and osmolality to 320 with OSM solution. The external solution contained the following: 145 mM NaCl, 4 mM KCl, 1 mM MgCl2, 2 mM CaCl2), 10 mM HEPES, 10 mM Glucose, adjusted to pH 7.4 with CsOH and osmolality to 305 with OSM solution. The OSM solution was a normal Ringer solution containing (in mM) NaCl 155, HEPES 10, sucrose, KCl 3.5, CaCl2) 1.5, MgCl2 1 adjusted to pH 7.4 with NaOH. All chemicals are from Sigma-Aldrich, St. Louis, Mo. In order to test the degree of internal block by test compounds, the compounds were dissolved in internal solution at the indicated test concentration. […] In order to test the degree of external block by test compounds the compounds were dissolved in external solution at the indicated test concentration.
Automated Patch Clamps were performed on Qube 384 (Sophion Bioscience, Woburn Mass.) with multihole Qchips at a temperature setting of 22 degrees. The whole cells configuration was formed with default Qube seal and break-in parameter. The membrane potential was held at −100 mV before the voltage protocol began. Two voltage protocols were followed.
Step 1: Cells were held at −100 mV with a depolarized pulse to −20 mV for 10 ms, the interval was set at 5 s. Currents were corrected by default leak subtraction from every pulse. The duration was set at 5 mins.
Step 2: Cells were held at −100 mV with a depolarized pulse to −20 mV for 10 ms. The frequency was 5 Hz. Currents were corrected by leak subtraction calculated before step 2. The duration was set at 4 mins.
After Step 2, the external solution was changed with solutions containing test compounds. Qchips were held at −100 mV without pulsing. The total solution switching time was 8 minutes. After the external solution exchange, cells were recorded using the same procedure as step 2 for 10 minutes.
Data analysis was performed by Sophion Analyzer. Data were corrected with control cells (Non-Drug). The IC50 data were plotted with DR-plots/Hill function (a dose-response plot with a Hill fit). Representative examples of the invention were tested for extracellular inhibition of NaV 1.7 in the automated patch clamp assay. Activity Range is reported as IC50: “++++” ([…], “+++” (1-3 μM), “++” ([…]) or “+” (>10 μM). The results are presented below.

[3] = target: T1, NaV1.7; assay: Automated patch clamp (Qube 384), internal block of NaV1.7; format: cell-based; conditions: IC50, compound in internal solution, HEK293 cells, read-out: Nav1.7 Intracellular Inhibition
Procedure, shortened: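 Tetracycline-induced HEK293 cells, whole-cell Qube recording at 22 degrees; compounds dissolved in internal solution (CsF-based, pH 7.3), exchanged after baseline. Held at −100 mV, 10 ms pulses to −20 mV at 5 Hz for 10 min; remaining current (last 3 points) vs baseline, rundown-corrected with no-drug cells; Hill-fit IC50.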

PAMPA (10^−6 cm/s) [1]	IC50 [2]	IC50 [3]	SMILES
+ (“+” (<0.1 10^−6 cm/s))	> 10 µM	1 to 3 µM	CCN(CC)C(=O)C1CCC[N+](CC(=O)Nc2c(C)cccc2C)(Cc2ccccc2)C1 (stereo not shown) [Compound 66A]
+ (“+” (<0.1 10^−6 cm/s))		0.3 to 1 µM	Cc1cccc(C)c1NC(=O)C[N+]1(Cc2ccccc2)CCCC(C(=O)N(C)C)C1.[Br-] (stereo not shown) [Compound 65A]
+ (“+” (<0.1 10^−6 cm/s))	> 10 µM	0.3 to 1 µM	CCC(=O)Oc1cccc(C)c1NC(=O)C[N+]1(Cc2ccccc2)CCCCCC1.[Br-] [Compound 80A, 1-benzyl-1-(2-((2-methyl-6-(propionyloxy)phenyl)amino)-2-oxoethyl) azepan-1-ium bromide]
+ (“+” (<0.1 10^−6 cm/s))	3 to 10 µM	1 to 3 µM	CCCc1cccc(C)c1NC(=O)C[N+]1(Cc2ccccc2)CCCCCC1.[Br-] [Compound 75A]
+ (“+” (<0.1 10^−6 cm/s))		0.3 to 1 µM	Cc1cccc(C(C)C)c1NC(=O)C[N+]1(Cc2ccccc2)CCCCCC1.[Br-] [Compound 74A]
+ (“+” (<0.1 10^−6 cm/s))		1 to 3 µM	Cc1cccc(-c2ccccc2)c1NC(=O)C[N+]1(Cc2ccccc2)CCCCCC1.[Br-] [Compound 76A]
+ (“+” (<0.1 10^−6 cm/s))	> 10 µM	0.3 to 1 µM	CCNC(=O)C1CCC[N+](CC(=O)Nc2c(C)cccc2C)(Cc2ccccc2)C1.[Br-] (stereo not shown) [Compound 54A, 1-benzyl-1-(2-((2,6-dimethylphenyl)amino)-2-oxoethyl)-3-(ethylcarbamoyl) piperidin-1-ium bromide]
+ (“+” (<0.1 10^−6 cm/s))	> 10 µM	3 to 10 µM	CCCCNc1ccc(NC(=O)C[N+]2(Cc3ccccc3)CCCCCC2)cc1.O=C[O-] [Compound 41A, 1-benzyl-1-(2-((4-(butylamino)phenyl)amino)-2-oxoethyl) azepan-1-ium formate]
+ (“+” (<0.1 10^−6 cm/s))	> 10 µM	0.3 to 1 µM	Cc1cccc(C)c1NC(=O)C[N+]1(Cc2ccccc2)CCCC(F)(F)C1.[Br-] (stereo not shown) [Compound 32A, 1-benzyl-1-(2-((2,6-dimethylphenyl)amino)-2-oxoethyl)-3,3-difluoropiperidin-1-ium bromide]
+ (“+” (<0.1 10^−6 cm/s))	1 to 3 µM	1 to 3 µM	CCCOC(=O)C1CCC[N+](CC(=O)Nc2c(C)cccc2C)(Cc2ccccc2)C1.[Br-] (stereo not shown) [Compound 47A, 1-benzyl-1-(2-((2,6-dimethylphenyl)amino)-2-oxoethyl)-3-(propoxycarbonyl) piperidin-1-ium bromide]
+ (“+” (<0.1 10^−6 cm/s))	> 10 µM	< 0.3 µM	COC(=O)C1CC[N+](CC(=O)Nc2c(C)cccc2C)(Cc2ccccc2)CC1.[Br-] (stereo not shown) [Compound 44A, 1-benzyl-1-(2-((2,6-dimethylphenyl)amino)-2-oxoethyl)-4-(methoxycarbonyl) piperidin-1-ium bromide]
+ (“+” (<0.1 10^−6 cm/s))		< 0.3 µM	CCC(=O)OC1CCC[N+](CC(=O)Nc2c(C)cccc2C)(Cc2ccccc2)C1.[Br-] (stereo not shown) [Compound 52A, 1-benzyl-1-(2-((2,6-dimethylphenyl)amino)-2-oxoethyl)-3-(propionyloxy) piperidin-1-ium bromide]
+ (“+” (<0.1 10^−6 cm/s))		0.3 to 1 µM	[2H]c1c([2H])c([2H])c(C[N+]2(CC(=O)Nc3c(C)cccc3C)CCCCCC2)c([2H])c1[2H].[Cl-] [Compound 33A, 1-(2-((2,6-dimethylphenyl)amino)-2-oxoethyl)-1-((phenyl-d5)methyl) azepan-1-ium chloride]
+ (“+” (<0.1 10^−6 cm/s))	> 10 µM	3 to 10 µM	COC(=O)c1ccc(C[N+]2(CC(=O)Nc3c(C)cccc3C)CCCCC2)cc1.[Br-] [Compound 36A, 1-(2-((2,6-dimethylphenyl)amino)-2-oxoethyl)-1-(4-(methoxycarbonyl)benzyl) piperidin-1-ium bromide]
++ (“++” (0.1-2.0 10^−6 cm/s))	> 10 µM	1 to 3 µM	Cc1cccc(C)c1N1CCC([N+]2(Cc3ccccc3)CCCCC2)C1=O.[Br-] (stereo not shown) [Compound 89A, 1-benzyl-1-(1-(2,6-dimethylphenyl)-2-oxopyrrolidin-3-yl)piperidin-1-ium bromide]
+ (“+” (<0.1 10^−6 cm/s))	> 10 µM	1 to 3 µM	COC(=O)c1cccc(C[N+]2(CC(=O)Nc3c(C)cccc3C)CCCCC2)c1.[Br-] [Compound 35A, 1-(2-((2,6-dimethylphenyl)amino)-2-oxoethyl)-1-(3-(methoxycarbonyl)benzyl) piperidin-1-ium bromide]
+ (“+” (<0.1 10^−6 cm/s))	3 to 10 µM	0.3 to 1 µM	Cc1cccc(C)c1NC(=O)C[N+]1(Cc2ccccc2)CCCC(C(=O)OC(C)C)C1 (mixture of isomers) [Compound 46A, 1-benzyl-1-(2-((2,6-dimethylphenyl)amino)-2-oxoethyl)-3-(isopropoxycarbonyl) piperidin-1-ium trifluoroacetate salt]
+ (“+” (<0.1 10^−6 cm/s))	> 10 µM	0.3 to 1 µM	CCOC(=O)C1CCC[N+](CC(=O)Nc2c(C)cccc2C)(Cc2ccccc2)C1.[Br-] (stereo not shown) [Compound 45A, 1-benzyl-1-(2-((2,6-dimethylphenyl)amino)-2-oxoethyl)-3-(ethoxycarbonyl) piperidin-1-ium bromide]
+ (“+” (<0.1 10^−6 cm/s))	> 10 µM	0.3 to 1 µM	CCCOC(=O)N1CCC[N+](CC(=O)Nc2c(C)cccc2C)(Cc2ccccc2)CC1.[Br-] (stereo not shown) [Compound 68A, 1-benzyl-1-(2-((2,6-dimethylphenyl)amino)-2-oxoethyl)-4-(propoxycarbonyl)-1,4-diazepan-1-ium bromide]
+ (“+” (<0.1 10^−6 cm/s))	3 to 10 µM	0.3 to 1 µM	Cc1cccc(C)c1N1CCC([N+]2(Cc3ccccc3)CCCCCCC2)C1=O.[Br-] (stereo not shown) [Compound 90A]
+ (“+” (<0.1 10^−6 cm/s))	> 10 µM	1 to 3 µM	Cc1cccc(C)c1N1CCCC([N+]2(Cc3ccccc3)CCCC2)C1=O.[Br-] (stereo not shown) [Compound 91A, 1-benzyl-1-(1-(2,6-dimethylphenyl)-2-oxopiperidin-3-yl) pyrrolidin-1-ium bromide]
+ (“+” (<0.1 10^−6 cm/s))		1 to 3 µM	Cc1cccc(C)c1NC(=O)C[N+]1(Cc2ccccc2)CCCC(C(=O)NC(C)C)C1 (stereo not shown) [Compound 56A]
+ (“+” (<0.1 10^−6 cm/s))		0.3 to 1 µM	Cc1cccc(C#N)c1NC(=O)C[N+]1(Cc2ccccc2)CCCCCC1.[Br-] [Compound 72A]
+ (“+” (<0.1 10^−6 cm/s))		0.3 to 1 µM	COc1cccc(C)c1NC(=O)C[N+]1(Cc2ccccc2)CCCCCC1 [Compound 71A]
